Test results reported in PubChem BioAssay (NCI).
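Tested at 5 concentrations; 48 h exposure; 96-well plates; endpoints linearly interpolated, else capped at highest concentration. GI50 marks 50% less growth. TGI: concentration producing complete growth inhibition.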

Assays:
Assay in all cases: DTP human tumour cell line panel, 48 h; in the data active means GI50 below about 0.43 µM; inactive means the rest
[1] = tested on: UACC-257 melanoma
[2] = tested on: NCI-H226 lung
[3] = tested on: HS 578T breast
[4] = tested on: HOP-92 NSCLC
[5] = tested on: MDA-MB-231 breast
[6] = tested on: HL-60(TB) leukemia
[7] = tested on: MOLT-4 leukemia
[8] = tested on: M14 melanoma
[9] = tested on: RPMI-8226 leukemia
[10] = tested on: HCC-2998 colon
[11] = tested on: LOX IMVI melanoma
[12] = tested on: OVCAR-5 ovarian
[13] = tested on: SF-295 CNS
[14] = tested on: NCI-H23 lung
[15] = tested on: OVCAR-3 ovarian
[16] = tested on: U251 CNS
[17] = tested on: SN12C renal
[18] = tested on: CAKI-1 renal
[19] = tested on: KM12 colon
[20] = tested on: SW-620 colon
[21] = tested on: SK-MEL-28 melanoma
[22] = tested on: MCF7 breast
[23] = tested on: HCT-116 colon
[24] = tested on: UACC-62 melanoma
[25] = tested on: MDA-MB-435
[26] = tested on: NCI/ADR-RES ovarian
[27] = tested on: EKVX NSCLC
[28] = tested on: CCRF-CEM leukemia
[29] = tested on: SF-539 CNS
[30] = tested on: HOP-62 NSCLC
[31] = tested on: BT-549 breast
[32] = tested on: 786-0 renal
[33] = tested on: NCI-H460 lung
[34] = tested on: DU-145 prostate
[35] = tested on: OVCAR-4 ovarian
[36] = tested on: SNB-19 CNS
[37] = tested on: MALME-3M melanoma
[38] = tested on: A549 NSCLC
[39] = tested on: IGROV1 ovarian
[40] = tested on: HCT-15 colon
[41] = tested on: PC-3 prostate
[42] = tested on: SF-268 CNS
[43] = tested on: COLO 205 colon
[44] = tested on: TK-10 renal
[45] = tested on: HT29 colon
[46] = tested on: SK-MEL-2 melanoma
[47] = tested on: K-562 leukemia
[48] = tested on: ACHN renal
[49] = tested on: A498 renal
[50] = tested on: RXF 393 renal
[51] = tested on: T-47D breast
[52] = tested on: UO-31 renal
[53] = tested on: OVCAR-8 ovarian
[54] = tested on: SK-MEL-5 melanoma
[55] = tested on: SK-OV-3 ovarian
[56] = tested on: SR leukemia
[57] = tested on: NCI-H522 lung
[58] = tested on: SNB-75 CNS

Cc1cc2c([nH]1)CSc1cc(S(=O)(=O)c3ccccc3)c(=O)[nH]c1-2
> 86.2 µM: TGI [35]
> 61.5 µM: TGI [50]
> 100 µM: TGI [1] | TGI [5] | TGI [7] | TGI [9] | TGI [12] | TGI [16] | TGI [17] | TGI [20] | TGI [27] | TGI [28] | TGI [30] | TGI [32] | TGI [36] | TGI [38] | TGI [40] | TGI [41] | TGI [44] | TGI [47] | TGI [48] | TGI [53] | TGI [55] | TGI [56]
inactive: GI50 [1] 17.3 µM | GI50 [2] 14.6 µM | GI50 [3] 1800 nM | GI50 [5] 1630 nM | GI50 [7] 2740 nM | GI50 [9] 806 nM | GI50 [10] 3.42 µM | GI50 [11] 610 nM | GI50 [12] 17.6 µM | GI50 [13] 2400 nM | GI50 [14] 1040 nM | GI50 [17] 666 nM | GI50 [18] 4.4 µM | GI50 [19] 461 nM | GI50 [21] 4.67 µM | GI50 [24] 465 nM | GI50 [26] 445 nM | GI50 [27] 21 µM | GI50 [28] 452 nM | GI50 [30] 2090 nM | GI50 [31] 732 nM | GI50 [32] 14.9 µM | GI50 [33] 20.6 µM | GI50 [34] 722 nM | GI50 [35] 553 nM | GI50 [36] 2160 nM | GI50 [37] 568 nM | GI50 [38] 43.8 µM | GI50 [39] 820 nM | GI50 [42] 2390 nM | GI50 [43] 14.1 µM | GI50 [44] 21.7 µM | GI50 [46] 1460 nM | GI50 [47] 2560 nM | GI50 [48] 13.3 µM | GI50 [49] 22.1 µM | GI50 [50] 4.64 µM | GI50 [52] 16.4 µM | GI50 [53] 1540 nM | GI50 [54] 500 nM | GI50 [55] 21.9 µM | GI50 [57] 3.77 µM | GI50 [58] 1560 nM
1820 nM: TGI [29]
> 42.6 µM: TGI [10]
55.1 µM: TGI [51]
35.2 µM: TGI [43]
1320 nM: TGI [4]
16.1 µM: TGI [22] | TGI [54]
> 95.5 µM: TGI [39]
10.9 µM: TGI [23]
13.2 µM: TGI [34]
> 24 µM: TGI [58]
active: GI50 [4] 139 nM | GI50 [6] 249 nM | GI50 [8] 289 nM | GI50 [15] 246 nM | GI50 [16] 388 nM | GI50 [20] 306 nM | GI50 [22] 263 nM | GI50 [23] 368 nM | GI50 [25] 197 nM | GI50 [29] 327 nM | GI50 [40] 392 nM | GI50 [41] 351 nM | GI50 [45] 316 nM | GI50 [51] 350 nM | GI50 [56] 167 nM
69.7 µM: TGI [49]
> 58.4 µM: TGI [18]
2170 nM: TGI [26]
5.24 µM: TGI [19]
> 80.9 µM: TGI [42]
615 nM: TGI [15]
9.43 µM: TGI [3]
2160 nM: TGI [8]
> 73.2 µM: TGI [11]
> 74.4 µM: TGI [31]
> 39.6 µM: TGI [24]
8.09 µM: TGI [13]
60.6 µM: TGI [14]
36.7 µM: TGI [57]
42.5 µM: TGI [21]
> 83.2 µM: TGI [46]
68.5 µM: TGI [33]
75.9 µM: TGI [37]
> 93.6 µM: TGI [52]
> 88.7 µM: TGI [2]
460 nM: TGI [25]
